Results taken from PMC3914206.

What was measured:
Type in all cases: binding
[1] = biological target: T1, panel of 442 kinases (Homo sapiens, UniProt P49760); conditions: Compound Concentration 10 µM
T1 construct: purchased KINOMEscan
Source text: (§1) We assessed the selectivity of members of this scaffold using the KINOMEscan methodology across a near comprehensive panel of 442 kinases [[18,27]].

[2] = biological target: T2, panel of 442 kinases (Homo sapiens, UniProt O14733); conditions: Compound Concentration 10 µM
T2 construct: purchased KINOMEscan
T2 sequence (O14733 1-419): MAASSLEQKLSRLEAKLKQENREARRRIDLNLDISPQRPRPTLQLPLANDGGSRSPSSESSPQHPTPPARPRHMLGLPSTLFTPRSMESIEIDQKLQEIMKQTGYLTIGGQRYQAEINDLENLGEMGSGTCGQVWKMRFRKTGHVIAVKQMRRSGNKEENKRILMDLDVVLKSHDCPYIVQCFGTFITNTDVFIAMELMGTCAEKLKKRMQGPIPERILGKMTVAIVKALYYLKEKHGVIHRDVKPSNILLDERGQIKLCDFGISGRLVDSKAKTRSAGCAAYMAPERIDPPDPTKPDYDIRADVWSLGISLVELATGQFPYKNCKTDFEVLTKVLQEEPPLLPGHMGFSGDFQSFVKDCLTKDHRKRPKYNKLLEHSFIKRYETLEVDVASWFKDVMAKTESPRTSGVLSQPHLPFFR
Source text: as §1

[3] = biological target: T3, panel of 442 kinases (Homo sapiens, UniProt Q9UK32); conditions: compound concentration 10 µM; for % Ctrl, RSK4(Kin.Dom.1-N-terminal): kinase RSK4(Kin.Dom.1-N-terminal); for % Ctrl, RSK4(Kin.Dom.2-C-terminal): kinase RSK4(Kin.Dom.2-C-terminal)
T3 construct: purchased KINOMEscan
T3 sequence (Q9UK32 whole entry): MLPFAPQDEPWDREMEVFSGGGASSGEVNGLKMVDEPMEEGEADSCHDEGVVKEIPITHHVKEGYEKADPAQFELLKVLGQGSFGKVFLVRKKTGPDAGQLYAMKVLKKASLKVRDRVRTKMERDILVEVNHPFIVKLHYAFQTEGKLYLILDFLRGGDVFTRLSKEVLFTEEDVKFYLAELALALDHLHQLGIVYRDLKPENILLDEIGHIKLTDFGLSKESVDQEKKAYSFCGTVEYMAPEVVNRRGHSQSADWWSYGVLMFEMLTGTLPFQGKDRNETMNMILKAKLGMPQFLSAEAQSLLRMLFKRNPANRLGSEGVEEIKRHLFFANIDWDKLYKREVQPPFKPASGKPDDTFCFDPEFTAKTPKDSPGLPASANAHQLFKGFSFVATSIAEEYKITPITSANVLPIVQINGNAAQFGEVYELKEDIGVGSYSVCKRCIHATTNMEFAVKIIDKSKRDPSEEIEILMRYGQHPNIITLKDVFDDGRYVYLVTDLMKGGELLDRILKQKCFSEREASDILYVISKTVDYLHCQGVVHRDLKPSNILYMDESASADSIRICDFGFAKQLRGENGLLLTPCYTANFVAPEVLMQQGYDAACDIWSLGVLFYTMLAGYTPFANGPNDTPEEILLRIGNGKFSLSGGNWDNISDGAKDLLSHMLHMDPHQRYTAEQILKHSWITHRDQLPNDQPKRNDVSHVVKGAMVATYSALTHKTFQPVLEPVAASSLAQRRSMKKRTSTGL
Source text: as §1

T1 sequence (P49760 whole entry): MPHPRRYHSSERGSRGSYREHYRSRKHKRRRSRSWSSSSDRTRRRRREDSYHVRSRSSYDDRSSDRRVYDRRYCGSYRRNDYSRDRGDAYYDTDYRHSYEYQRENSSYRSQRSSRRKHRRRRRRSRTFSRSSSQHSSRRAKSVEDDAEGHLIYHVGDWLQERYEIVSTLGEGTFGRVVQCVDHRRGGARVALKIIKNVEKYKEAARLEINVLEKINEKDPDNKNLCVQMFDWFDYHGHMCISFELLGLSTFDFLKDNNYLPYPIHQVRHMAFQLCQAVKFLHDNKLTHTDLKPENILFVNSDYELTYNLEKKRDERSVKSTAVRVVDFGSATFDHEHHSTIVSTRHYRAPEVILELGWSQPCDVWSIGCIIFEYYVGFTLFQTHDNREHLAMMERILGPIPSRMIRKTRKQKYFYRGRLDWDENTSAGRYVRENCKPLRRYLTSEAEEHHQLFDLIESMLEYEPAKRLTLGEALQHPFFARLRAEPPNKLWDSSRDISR

SMILES: COc1cc(C(=O)N2CCC(N3CCN(C)CC3)CC2)ccc1Nc1ncc2c(n1)N(C)c1ccccc1C(=O)N2C [15 (LRRK2-IN-1)]
- KINOMEscan: CLK2 [1]: 72
- KINOMEscan: MKK7 [2]: 100
- % Ctrl, RSK4(Kin.Dom.1-N-terminal) [3]: 92 % Ctrl
- % Ctrl, RSK4(Kin.Dom.2-C-terminal) [3]: 2.2 % Ctrl

SMILES: CCOc1cc(C(=O)N2CCC(N3CCN(C)CC3)CC2)ccc1Nc1ncc2c(n1)N(C1CCCC1)c1ccccc1C(=O)N2C [Compound 26]
- KINOMEscan: CLK2 [1]: 86
- KINOMEscan: MKK7 [2]: 88
- % Ctrl, RSK4(Kin.Dom.1-N-terminal) [3]: 100 % Ctrl
- % Ctrl, RSK4(Kin.Dom.2-C-terminal) [3]: 98 % Ctrl

SMILES: COc1cc(C(=O)N2CCC(N3CCN(C)CC3)CC2)ccc1Nc1ncc2c(n1)N1CCc3cccc(c31)C(=O)N2C [Compound 24]
- KINOMEscan: CLK2 [1]: 25
- % Ctrl, RSK4(Kin.Dom.1-N-terminal) [3]: 100 % Ctrl
- % Ctrl, RSK4(Kin.Dom.2-C-terminal) [3]: 5.2 % Ctrl

SMILES: COc1cc(C(=O)N2CCC(N3CCN(C)CC3)CC2)ccc1Nc1ncc2c(n1)N(C1CCCC1)c1ccccc1C(=O)N2C [Compound 25, 11-cyclopentyl-2-((2-methoxy-4-(4-(4-methylpiperazin-1-yl)piperidine-1-carbonyl)phenyl)amino)-5-methyl-5H-benzo[e]pyrimido[5,4-b][1,4]diazepin-6(11H)-one]
- KINOMEscan: CLK2 [1]: 79
- KINOMEscan: MKK7 [2]: 100
- % Ctrl, RSK4(Kin.Dom.1-N-terminal) [3]: 100 % Ctrl
- % Ctrl, RSK4(Kin.Dom.2-C-terminal) [3]: 93 % Ctrl
